Experimental data as given in article PMC5936838, “Structural implications of hERG K^+ channel block by a high-affinity minimally structured blocker” (The Journal of Biological Chemistry, 2018).
Where “and” joins values, the source holds several entries; their conditions need not be identical. Identical values can stand only once. Entries after “also recorded” stand apart in the source; their conditions may differ.

Key:
hERG = system: hERG; parameters: method as in earlier work; settings: HEK cells at room temperature; ref 30 (Cavalli et al.); cited from earlier work
N588K hERG = molecular target: T1, N588K hERG (Homo sapiens, UniProt Q12809, N588K); experiment: Whole-cell patch-clamp recording of IhERG, attenuated-inactivation mutant N588K; assay type: cell-based
T1 construct: expressed in transfected cells; host or cells: HEK293
From the text: (§1) A HEK293 cell line stably expressing WT hERG channels was kindly donated by Prof. Craig January ([51]). The pore helix (T623A and S624A) and S6 helix (F656A) alanine mutants, attenuated-inactivation mutants (N588K and S620T), and S5 mutant F557L were all generated and used as described previously ([3], [18], [41], [52]). The HEK293 cell line stably expressing the hERG S6 helix mutant Y652A was used in this study as described previously ([52]).
(§2) HEK293 cells stably or transiently expressing hERG constructs were maintained as described previously ([18], [19], [52]). Cells were plated in 40-mm Petri dishes at least 48 h before transfection and incubated at 37 °C with 5% CO2. Cells were transfected either with Lipofectamine^TM 2000 (Invitrogen) or Lipofectamine LTX (Invitrogen) following the manufacturer's instructions. The amount of hERG construct DNA that was transfected varied between 0.1 and 1.0 μg depending on the level of functional expression. 0.15 μg of CD8 was cotransfected as a transfection marker, and successfully transfected cells were identified using Dynabeads® (Invitrogen). Cells were plated on sterilized glass shards in 40-mm Petri dishes and incubated at 37 °C (5% CO2) at least 24 h before electrophysiological recording; this was to allow time for cell recovery and hERG construct expression.
(§3) For IhERG recordings, glass shards containing plated cells were placed in a recording chamber mounted on an inverted microscope (Nikon Diaphot). The cells were superfused continuously with Tyrode's solution containing 140 mM NaCl, 4 mM KCl, 2.5 mM CaCl2, 1 mM MgCl2, 10 mM glucose, 5 mM HEPES (titrated to pH 7.4 with NaOH). As described previously ([18], [19]), a modified “high-K^+” version of this solution (containing 94 mM KCl and 50 mM NaCl) was used to obtain recordable currents from comparatively poorly expressed hERG mutants (T623A and F656A). Patch pipettes (Schott number 8250 glass, A-M Systems Inc.) were pulled (Narishige, PP 830) and polished (Narishige, MF 83) to final resistance values between 2 and 4 megaohms. […]

S620T hERG = molecular target: T2, S620T hERG (Homo sapiens, UniProt Q12809, S620T); experiment: Whole-cell patch-clamp recording of IhERG, attenuated-inactivation mutant S620T; assay type: cell-based
T2 construct: expressed in transfected cells; host or cells: HEK293
From the text: as §1
as §2, with “construct expression. […]” for “construct expression.”

S624A hERG = molecular target: T3, S624A hERG (Homo sapiens, UniProt Q12809, S624A); experiment: Whole-cell patch-clamp recording of IhERG, pore helix mutant S624A; assay type: cell-based
T3 construct: expressed in transfected cells; host or cells: HEK293
From the text: as §1
as §2, with “construct expression. […]” for “construct expression.”

WT hERG [1] = molecular target: T4, WT hERG (Homo sapiens, UniProt Q12809); experiment: Whole-cell patch-clamp recording of IhERG, WT hERG in HEK293 cells at 37 °C; assay type: cell-based
T4 construct: expressed in transfected cells

T623A hERG = molecular target: T5, T623A hERG (Homo sapiens, UniProt Q12809, T623A); experiment: Whole-cell patch-clamp recording of IhERG, pore helix mutant T623A; assay type: cell-based
T5 construct: expressed in transfected cells; host or cells: HEK293
From the text: as §1
as §2, with “construct expression. […]” for “construct expression.”

F557L hERG = molecular target: T6, F557L hERG (Homo sapiens, UniProt Q12809, F557L); experiment: Whole-cell patch-clamp recording of IhERG, S5 mutant F557L; assay type: cell-based
T6 construct: expressed in transfected cells; host or cells: HEK293
From the text: as §1, §2
The F557L hERG mutation was generated using the Quik Change® site-directed mutagenesis kit (Stratagene, La Jolla, CA). In brief, a pair of complementary oligonucleotide primers containing the mutation (forward primer sequence, 5′[…]-3′; reverse primer sequence, 5′[…]-3′; synthesized by Sigma-Genosys, Haverhill, UK) was used in a PCR (95 °C for 1 min, 60 °C for 1 min, and 68 °C for 16 min for 18 cycles) by using hERG in a modified pcDNA3.0 vector as a DNA template. A DpnI digest of the PCR mixture was then performed for 1 h at 37 °C. Competent DH5α Escherichia coli (Invitrogen) were transformed using standard procedures. The mutation was confirmed by sequencing of the entire ORF (Eurofins MWG Operon, Ebersberg, Germany). […]

Y652A hERG = molecular target: T7, Y652A hERG (Homo sapiens, UniProt Q12809, Y652A); experiment: Whole-cell patch-clamp recording of IhERG, S6 helix mutant Y652A; assay type: cell-based
T7 construct: expressed in transfected cells
From the text: as §1, §2, §3

WT hERG [2] = molecular target: T4, WT hERG; experiment: Whole-cell patch-clamp recording of IhERG, WT hERG in HEK293 cells at 37 °C; assay type: cell-based; remark: listed apart in the source
From the text: as §1, §2
For IhERG recordings, glass shards containing plated cells were placed in a recording chamber mounted on an inverted microscope (Nikon Diaphot). The cells were superfused continuously with Tyrode's solution containing 140 mM NaCl, 4 mM KCl, 2.5 mM CaCl2, 1 mM MgCl2, 10 mM glucose, 5 mM HEPES (titrated to pH 7.4 with NaOH). As described previously ([18], [19]), a modified “high-K^+” version of this solution (containing 94 mM KCl and 50 mM NaCl) was used to obtain recordable currents from comparatively poorly expressed hERG mutants (T623A and F656A). Patch pipettes (Schott number 8250 glass, A-M Systems Inc.) were pulled (Narishige, PP 830) and polished (Narishige, MF 83) to final resistance values between 2 and 4 megaohms. The patch pipettes were filled with intracellular solutio, containing 130 mM KCl, 1 mM MgCl2, 5 mM EGTA, 5 mM MgATP, and 10 mM HEPES (titrated to pH 7.2 with KOH). Pipette resistance compensation was between 70 and 80%. Cavalli-2 ([30]), which was synthesized by Ascent Scientific (Abcam Ltd.), was dissolved in DMSO to produce 100 μM, 1 mM, and 10 mM stock solutions. Stock solutions were diluted either in standard or high-K^+ Tyrode's solution as appropriate to obtain final concentrations stated under “Results.” Solutions were preheated to 37 ± 1 °C and applied to single cells using a homemade, multibarreled superfusion system, enabling rapid superfusate exchange (<1 s) ([53]). Thus, measurements of IhERG were made at 37 ± 1 °C as described previously ([18], [19], [52], [54], [55]).
All IhERG recordings were made using an Axopatch 200B amplifier (Axon Instruments, now Molecular Devices) and a CV203BU head stage. Data were acquired using a Digidata 1320 interface (Axon Instruments, now Molecular Devices). Data digitization rates were between 10 and 25 kHz during all voltage protocols, and an appropriate bandwidth between 2 and 10 kHz was set on the amplifier. For WT hERG and most of the mutant channels studied, activating voltage commands to +20 mV were used with tail currents observed at either […] (for most mutants) or −120 mV (for T623A and F656A) ([18][–][20], [33]). The level of block of WT and mutant IhERG by Cavalli-2 was attained by repetitive protocol application for 5 min, and fractional inhibition of IhERG tails was measured. […]

F656A hERG = molecular target: T8, F656A hERG (Homo sapiens, UniProt Q12809, F656A); experiment: Whole-cell patch-clamp recording of IhERG, S6 helix mutant F656A; assay type: cell-based
T8 construct: expressed in transfected cells; host or cells: HEK293
From the text: as §1, §2, §3

T7 sequence (Q12809 whole entry Y652A): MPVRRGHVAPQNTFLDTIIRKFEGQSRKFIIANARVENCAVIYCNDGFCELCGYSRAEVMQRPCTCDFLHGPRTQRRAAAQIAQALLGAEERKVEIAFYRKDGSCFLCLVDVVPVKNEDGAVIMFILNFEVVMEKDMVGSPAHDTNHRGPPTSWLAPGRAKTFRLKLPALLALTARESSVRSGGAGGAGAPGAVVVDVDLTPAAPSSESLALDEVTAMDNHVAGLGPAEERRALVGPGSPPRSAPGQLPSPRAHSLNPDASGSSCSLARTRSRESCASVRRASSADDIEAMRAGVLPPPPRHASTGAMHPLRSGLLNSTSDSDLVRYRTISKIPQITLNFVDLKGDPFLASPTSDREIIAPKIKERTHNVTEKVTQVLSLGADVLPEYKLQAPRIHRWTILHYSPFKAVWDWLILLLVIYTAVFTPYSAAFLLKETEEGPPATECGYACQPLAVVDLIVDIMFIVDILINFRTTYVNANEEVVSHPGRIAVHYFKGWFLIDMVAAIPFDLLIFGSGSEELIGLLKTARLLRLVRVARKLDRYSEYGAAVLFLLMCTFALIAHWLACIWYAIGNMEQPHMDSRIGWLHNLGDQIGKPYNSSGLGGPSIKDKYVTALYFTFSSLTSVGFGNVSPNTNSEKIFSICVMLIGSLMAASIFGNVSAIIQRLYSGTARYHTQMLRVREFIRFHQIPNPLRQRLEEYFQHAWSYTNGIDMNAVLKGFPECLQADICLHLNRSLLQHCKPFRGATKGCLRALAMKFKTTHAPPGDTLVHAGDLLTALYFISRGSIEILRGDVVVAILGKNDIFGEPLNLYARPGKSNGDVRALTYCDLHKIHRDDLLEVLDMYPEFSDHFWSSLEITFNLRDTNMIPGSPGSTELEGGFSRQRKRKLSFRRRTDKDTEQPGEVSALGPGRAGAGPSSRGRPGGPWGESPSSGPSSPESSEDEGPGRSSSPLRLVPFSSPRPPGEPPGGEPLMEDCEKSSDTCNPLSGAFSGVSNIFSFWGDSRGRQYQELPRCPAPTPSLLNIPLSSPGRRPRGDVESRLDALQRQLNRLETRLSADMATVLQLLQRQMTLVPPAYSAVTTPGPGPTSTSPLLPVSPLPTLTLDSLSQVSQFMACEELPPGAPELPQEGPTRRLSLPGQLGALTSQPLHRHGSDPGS
T8 sequence (Q12809 whole entry F656A): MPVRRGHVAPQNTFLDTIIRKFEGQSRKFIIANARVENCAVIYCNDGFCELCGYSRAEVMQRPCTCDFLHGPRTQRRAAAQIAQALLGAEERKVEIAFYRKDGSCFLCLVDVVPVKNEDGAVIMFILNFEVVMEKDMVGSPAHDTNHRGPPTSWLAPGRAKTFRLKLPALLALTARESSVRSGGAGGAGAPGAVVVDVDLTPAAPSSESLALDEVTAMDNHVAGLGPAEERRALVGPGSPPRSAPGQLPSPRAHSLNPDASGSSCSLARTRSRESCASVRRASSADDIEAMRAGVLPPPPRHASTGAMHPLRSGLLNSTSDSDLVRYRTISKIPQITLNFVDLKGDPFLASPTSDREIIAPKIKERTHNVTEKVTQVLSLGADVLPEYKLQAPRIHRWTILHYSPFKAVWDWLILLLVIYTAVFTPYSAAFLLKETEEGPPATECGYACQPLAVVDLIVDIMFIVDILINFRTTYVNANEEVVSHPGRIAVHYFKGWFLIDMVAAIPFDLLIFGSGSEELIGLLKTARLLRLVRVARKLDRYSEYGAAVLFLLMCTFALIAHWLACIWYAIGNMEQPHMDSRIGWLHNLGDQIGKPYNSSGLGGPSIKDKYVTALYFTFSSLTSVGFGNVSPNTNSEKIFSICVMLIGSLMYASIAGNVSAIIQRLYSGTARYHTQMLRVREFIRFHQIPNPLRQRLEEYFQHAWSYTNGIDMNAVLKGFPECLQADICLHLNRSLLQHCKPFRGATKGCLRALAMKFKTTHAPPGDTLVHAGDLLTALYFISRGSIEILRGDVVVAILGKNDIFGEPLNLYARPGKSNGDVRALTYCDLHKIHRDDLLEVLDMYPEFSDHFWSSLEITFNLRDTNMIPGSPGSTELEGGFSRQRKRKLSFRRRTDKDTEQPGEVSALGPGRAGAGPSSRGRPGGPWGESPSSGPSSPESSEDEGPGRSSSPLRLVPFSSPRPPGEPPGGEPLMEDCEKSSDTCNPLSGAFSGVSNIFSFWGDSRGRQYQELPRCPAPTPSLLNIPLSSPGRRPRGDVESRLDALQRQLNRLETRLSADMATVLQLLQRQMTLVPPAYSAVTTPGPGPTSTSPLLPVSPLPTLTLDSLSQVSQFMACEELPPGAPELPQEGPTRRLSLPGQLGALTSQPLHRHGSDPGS
T3 sequence (Q12809 whole entry S624A): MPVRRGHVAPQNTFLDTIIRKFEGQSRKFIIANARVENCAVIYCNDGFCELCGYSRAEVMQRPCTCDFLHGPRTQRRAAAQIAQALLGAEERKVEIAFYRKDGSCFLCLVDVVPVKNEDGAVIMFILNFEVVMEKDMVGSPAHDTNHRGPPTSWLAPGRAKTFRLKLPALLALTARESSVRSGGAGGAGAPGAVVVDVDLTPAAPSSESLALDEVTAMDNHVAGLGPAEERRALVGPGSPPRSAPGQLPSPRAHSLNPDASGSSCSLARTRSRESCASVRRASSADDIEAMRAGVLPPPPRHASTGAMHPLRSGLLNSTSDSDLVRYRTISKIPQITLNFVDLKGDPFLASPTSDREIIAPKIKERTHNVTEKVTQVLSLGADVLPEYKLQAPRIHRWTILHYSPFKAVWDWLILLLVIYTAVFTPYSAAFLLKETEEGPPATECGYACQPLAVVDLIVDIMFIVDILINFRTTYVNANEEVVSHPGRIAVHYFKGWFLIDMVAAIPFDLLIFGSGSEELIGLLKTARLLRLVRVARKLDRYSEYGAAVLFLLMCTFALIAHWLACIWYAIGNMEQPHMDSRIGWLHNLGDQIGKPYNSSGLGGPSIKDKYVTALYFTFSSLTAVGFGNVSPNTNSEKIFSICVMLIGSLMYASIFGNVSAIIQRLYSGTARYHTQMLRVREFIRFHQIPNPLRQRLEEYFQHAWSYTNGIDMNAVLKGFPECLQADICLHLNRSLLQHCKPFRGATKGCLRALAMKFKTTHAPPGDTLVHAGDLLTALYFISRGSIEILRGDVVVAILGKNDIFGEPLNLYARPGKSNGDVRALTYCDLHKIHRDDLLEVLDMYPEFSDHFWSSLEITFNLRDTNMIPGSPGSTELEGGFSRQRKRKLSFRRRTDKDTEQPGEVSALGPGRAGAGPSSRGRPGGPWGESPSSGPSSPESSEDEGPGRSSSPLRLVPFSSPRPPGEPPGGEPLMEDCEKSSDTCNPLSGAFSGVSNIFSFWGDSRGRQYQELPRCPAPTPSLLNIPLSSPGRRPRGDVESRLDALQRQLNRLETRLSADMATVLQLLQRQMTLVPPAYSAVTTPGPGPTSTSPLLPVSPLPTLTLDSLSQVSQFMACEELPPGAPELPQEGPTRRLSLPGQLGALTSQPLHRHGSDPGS
T5 sequence (Q12809 whole entry T623A): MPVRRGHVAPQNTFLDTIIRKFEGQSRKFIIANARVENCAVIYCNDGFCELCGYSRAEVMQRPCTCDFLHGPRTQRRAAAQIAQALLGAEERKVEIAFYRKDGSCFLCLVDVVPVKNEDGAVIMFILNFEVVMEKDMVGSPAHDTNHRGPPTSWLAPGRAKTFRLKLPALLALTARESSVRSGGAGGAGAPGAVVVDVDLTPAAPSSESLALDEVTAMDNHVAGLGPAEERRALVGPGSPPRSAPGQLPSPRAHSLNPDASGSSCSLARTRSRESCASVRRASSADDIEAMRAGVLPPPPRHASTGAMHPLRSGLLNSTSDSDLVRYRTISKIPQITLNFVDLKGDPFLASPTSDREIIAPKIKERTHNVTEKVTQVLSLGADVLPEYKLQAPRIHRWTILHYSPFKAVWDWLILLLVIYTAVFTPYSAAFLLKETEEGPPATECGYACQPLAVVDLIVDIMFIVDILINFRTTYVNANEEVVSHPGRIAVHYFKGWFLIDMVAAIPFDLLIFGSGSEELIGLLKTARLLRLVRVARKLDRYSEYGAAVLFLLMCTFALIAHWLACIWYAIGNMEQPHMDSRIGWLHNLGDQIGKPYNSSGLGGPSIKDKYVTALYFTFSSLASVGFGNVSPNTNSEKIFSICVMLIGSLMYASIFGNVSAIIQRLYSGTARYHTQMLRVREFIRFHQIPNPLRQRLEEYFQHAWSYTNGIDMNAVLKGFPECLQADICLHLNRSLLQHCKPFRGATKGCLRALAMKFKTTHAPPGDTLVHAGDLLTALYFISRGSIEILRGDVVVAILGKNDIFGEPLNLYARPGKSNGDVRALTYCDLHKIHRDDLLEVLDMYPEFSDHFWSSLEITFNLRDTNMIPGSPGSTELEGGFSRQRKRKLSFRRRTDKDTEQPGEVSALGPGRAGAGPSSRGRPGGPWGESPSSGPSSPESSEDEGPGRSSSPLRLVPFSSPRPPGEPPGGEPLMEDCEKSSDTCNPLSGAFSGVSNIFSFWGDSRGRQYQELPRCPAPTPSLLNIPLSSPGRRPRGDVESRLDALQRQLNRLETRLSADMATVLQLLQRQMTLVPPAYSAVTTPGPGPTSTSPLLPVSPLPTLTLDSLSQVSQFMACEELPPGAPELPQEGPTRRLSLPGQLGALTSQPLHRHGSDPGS

Compound: c1ccc(CCCNCCC(c2ccccc2)c2ccccc2)cc1 [Cavalli-2]
- IC50 (hERG): 17 nM
- Potency reduction compared with its WT-control (fold WT IC50) (N588K hERG; N588K vs WT-1): 15 fold and 15.3 fold
- inhibition at 5 min, 0.3 µM (N588K hERG; human, HEK293 cells expressing N588K hERG, pH 7.4, 300 nM): < 50%
- IC50 at 5 min (N588K hERG; human, HEK293 cells expressing N588K hERG, pH 7.4, N588K, −40 mV, 4 mM K+): 544 nM
- Potency reduction compared with its WT-control (fold WT IC50) (S620T hERG; S620T vs WT-1): 54 fold and 53.8 fold
- IC50 at 5 min (S620T hERG; human, HEK293 cells expressing S620T hERG, pH 7.4, S620T, −40 mV, 4 mM K+): 1920 nM
- Potency reduction compared with its WT-control (fold WT IC50) (S624A hERG; S624A vs WT-1): 7 fold and 7.4 fold
- IC50 at 5 min (S624A hERG; human, HEK293 cells expressing S624A hERG, pH 7.4, S624A, −40 mV, 4 mM K+): 262 nM
- IhERG tail inhibition (WT hERG [1]; 30 nM, standard protocol, tails at −40 mV, 4 mM K+): 50.2 ± 2.0%
- change in t½ of IhERG deactivation (WT hERG [1]; 30 nM, tails at −40 mV): No significant change
- IC50 (WT hERG [1]; WT-1, IhERG tails, voltage step −40 mV, 4 mM K+, HEK293, 37 °C): 35.6 nM
- inhibition at 5 min, 0.03 µM (WT hERG [1]; human, HEK293 cells stably expressing WT hERG, pH 7.4, 30 nM, AP voltage clamp, read-out: inhibition of peak IhERG during ventricular action potential waveform): 42.3 ± 6.7%
- inhibition at 5 min, 30 nM (WT hERG [1]; human, HEK293 cells stably expressing WT hERG, pH 7.4, 30 nM, standard protocol, tails at −40 mV, 4 mM K+, read-out: IhERG tail inhibition): ~50%
- IC50 at 5 min (WT hERG [1]; human, HEK293 cells stably expressing WT hERG, pH 7.4, WT-1, IhERG tails, voltage step −40 mV, 4 mM K+, HEK293, 37 °C): 36 nM
- Potency reduction compared with its WT-control (fold WT IC50) (T623A hERG; T623A vs WT-2): 16 fold and 16.1 fold
- IC50 at 5 min (T623A hERG; human, HEK293 cells expressing T623A hERG, pH 7.4, T623A, −120 mV, 94 mM K+): 281 nM
- voltage dependence of F557L IhERG tail inhibition (F557L hERG; 300 nM, −20 to +40 mV): eliminated voltage dependence of inhibition; also recorded: no significant voltage dependence; also recorded: nearly abolished
- Potency reduction compared with its WT-control (fold WT IC50) (F557L hERG; F557L vs WT-1): 10 fold and 9.5 fold
- IC50 at 5 min (F557L hERG; human, HEK293 cells expressing F557L hERG, pH 7.4, F557L, −40 mV, 4 mM K+): 339 nM
- voltage dependence of Y652A IhERG tail inhibition (Y652A hERG; 300 nM, −20 to +40 mV): eliminated voltage dependence of inhibition; also recorded: no significant voltage dependence
- Potency reduction compared with its WT-control (fold WT IC50) (Y652A hERG; Y652A vs WT-1): 17 fold and 16.7 fold
- IC50 at 5 min (Y652A hERG; human, HEK293 cells stably expressing Y652A hERG, pH 7.4, Y652A, −40 mV, 4 mM K+): 594 nM
- k (slope) of IhERG activation in the presence of compound (WT hERG [2]; 30 nM): 5.0 ± 1.5 and 5.03 ± 1.50 and 4.8 ± 1.1
- k of IhERG inactivation in the presence of compound (WT hERG [2]; 30 nM): 19.9 ± 1.1 and 20.1 ± 1.3
- ΔV0.5 of activation (WT hERG [2]; 30 nM vs control): -4.68 mV
- inactivation τ in the presence of compound (WT hERG [2]; 30 nM, +40 mV after 2-ms step to −120 mV, control 1.4 ± 0.2 ms): 1.6 ± 0.5 ms
- voltage dependence of fractional inhibition of WT IhERG (WT hERG [2]; 30 nM, test depolarizations −30 to +60 mV): voltage-dependent over the tested range
- fractional inhibition of IhERG during +40-mV phase vs 0-mV phases (WT hERG [2]; 30 nM, three-step protocol 0/+40/0 mV): significantly reduced
- δ value (Woodhull analysis) (WT hERG [2]; KD at +60 mV vs 0 mV): 0.2
- IC50 at 5 min (WT hERG [2]; human, HEK293 cells stably expressing WT hERG, pH 7.4, WT-2, inward IhERG tails, voltage step −120 mV, 94 mM K+): 17.5 nM
- recovery at 30 nM (WT hERG [2]; human, HEK293 cells stably expressing WT hERG, pH 7.4, washout after 30 nM, five cells, read-out: recovery on washout, of control amplitude): 59.5 ± 4.1%
- reduction of F656A IhERG (F656A hERG; 1 μM, −120 mV, high K+): ~40%
- Potency reduction compared with its WT-control (fold WT IC50) (F656A hERG; F656A vs WT-2): 75 fold and 75.1 fold
- IC50 at 5 min (F656A hERG; human, HEK293 cells expressing F656A hERG, pH 7.4, F656A, −120 mV, 94 mM K+): 1320 nM
